The conditions of data set [1]: cited from earlier work.
The subject of data set [2] is progeria-induced animal model. Particulars: cited from earlier work.
Data set [3] is described as follows: Stability of spray-dried solid dispersions under storage for 2 weeks. The settings on record: for Appearance / HPLC results Purity / XRPD: open. It is filed as physicochemical.
A short description of data set [4]: Excipient compatibility of progerinin. The settings on record: mixed with HPMC E3, TPGS and potassium sorbate 1:10, 40° C./75% RH, 2 weeks. It is filed as physicochemical.
The next data set concerns progerin. The settings on record: cited from earlier work.

Consider one compound from patent US20250064778A1, “GRANULES COMPRISING PROGERININ, AND SACHETS USING SAME” (PRG S&TECH INC., priority 2022, published 2025).

Take `CC1(C)Oc2cc3oc(=O)ccc3cc2C[C@@H]1OC/C=C/c1ccccc1` [progerinin, (7S)-(+)-8,8-dimethyl-7-(3-phenylallyloxy)-7,8-dihydro-6H-pyrano[3,2-g]chromen-2-one]: the “solubility in aqueous media” value in data set [1] (BCS criteria) is recorded as “low solubility”. For the same compound, the solubility in water entry in data set [1] is “close to zero”. In data set [2], the survival period result was “prolonging a survival period”. Further, the Appearance result is listed as “White” in data set [3] (25° C./60% RH, after 1 week) and “White” in data set [3] (40° C./75% RH, after 1 week). Also, the “HPLC results Purity” value in data set [3] (25° C./60% RH, after 1 week) was 99.85%; in data set [3] (25° C./60% RH, after 2 weeks), 99.85%; in data set [3] (40° C./75% RH, after 1 week), 99.85%; in data set [3] (40° C./75% RH, after 2 weeks), 99.85%. The XRPD result in data set [3] (25° C./60% RH, after 1 week) is listed as “Unchanged”; in data set [3] (25° C./60% RH, after 2 weeks) it was “Unchanged”; in data set [3] (40° C./75% RH, after 1 week), “Unchanged”; in data set [3] (40° C./75% RH, after 2 weeks), “Unchanged”. The same compound returned an Initial purity in data set [3] (initial) of 99.85%. For the same compound, the “compatibility with excipients (effect on the drug)” value in data set [4] is “had no effect on the drug”. Moreover, the suppressing progerin expression entry in the data set on progerin is “excellent effects of suppressing progerin expression”.
